Reference: paper PMC6446301, “Evaluation of therapeutic effects of FAK inhibition in murine models of atherosclerosis” (BMC Research Notes, 2019)

Assays:
c-Src = settings: cited from earlier work
[1] = system: CDK1 (cyclin-dependent kinase 1); settings: cited from earlier work
LDLr KO mice = test: Atherosclerosis therapeutic intervention trial in LDLr KO mice; assay type: in vivo, mouse; settings: 0.03% food admixture
Method: (§1) The mutant male mice, apoE KO (B6.129P2-Apoe^tm1Unc/J) and LDLr KO (B6.129S7-Ldlr^tm1Her/J) at the age of 7 weeks, were purchased from Charles River Laboratories, and acclimated to the facility for 7 days. The mice were housed at 25 °C with a 12:12 h light–dark cycle, and food and water were provided ad libitum. The HF/HC diet D12108 containing 1.25% cholesterol and 20% fat was purchased from Research Diets. A selective small molecule FAK inhibitor Compound 12 (Additional file 1: Figure S1; a 2-phenylamino-pyrimidin-4-ylamino-2,3-dihydro-isoindol-1-one derivative) was administrated as food admixture at a concentration of 0.03%. Compound 12 has an IC50 of 6 nM on FAK and no activity on insulin receptor kinase, insulin-like growth factor 1 receptor kinase, cyclin-dependent kinase 1 and Src (Additional file 2: Table S1) as described by Kawahara et al.).
(§2) To assess the therapeutic effect of FAK inhibition, the following three different designs were applied: prevention (1) and therapeutic intervention (2) in apoE KO mice, and therapeutic intervention (3) in LDLr KO mice. The prevention trial consisted of 8-week concurrent treatment with the HF/HC diet following 1 week of pre-loading of the HF/HC diet (Additional file 3: Figure S2A). The therapeutic intervention trial consisted of 6- and 8-week treatment after 6- and 8-week pre-loading of the HF/HC diet in apoE KO and LDLr KO mice, respectively (Additional file 3: Figure S2B). Body weight and food intake were measured once weekly. The mice were euthanized under terminal inhalation anesthesia with isoflurane followed by blood collection from abdominal vein.
(§3) Atherosclerotic lesion area was evaluated in the aorta by en face analysis (Additional file 4: Figure S3A) and in aortic root by cross-sectional analysis (Additional file 4: Figure S3B). The aorta was subjected to Sudan IV staining, and total area of the plaque lesion (TAOL) and area of whole aorta from arch without the region of brachiocephalic artery to common iliac artery (AOWA) were measured using the Definiens imaging software. Area of lesion (%) was calculated by the following formula; Area of lesion (%) = TAOL/AOWA × 100. After en face analysis, the aorta was washed and then blotted dry, weighed, minced, and total lipid was extracted with chloroform/methanol. Total and free cholesterol levels in the aortic extracts were determined with an enzymatic colorimetric assay (Wako Pure Chemical Industries Ltd.). Cross sections were cut at 5 μm thickness and 6 serial sections were collected every 50 μm along the aortic root. Lesion area analysis was made on the cross sections subjected to hematoxylin and eosin (HE) staining. Three representative sections derived from 3 segments were quantified per mouse. Lesion area values from the 3 sections were summed up. Histological features using serial cross sections were subjected to staining for EvG and anti Mac-3 antigen. Clinical biochemistry markers in serum was evaluated using DRICHEM 7000 (FUJIFILM Medical, Japan). Statistical comparison of control and compound 12-treated groups was carried out with a Mann–Whitney test (two-tailed) using GraphPad Prism.

apoE KO mice [2] = test: Atherosclerosis prevention trial in apoE KO mice; assay type: in vivo, mouse
Method: as §1, §2, §3

[3] = system: IRK (insulin receptor kinase); settings: cited from earlier work
[4] = system: IGF-1R (insulin-like growth factor 1 receptor kinase); settings: cited from earlier work
[5] = Clinical biochemistry markers in serum, prevention trial apoE KO mice; assay type: in vivo, mouse; settings: Prevention (8 weeks), mean ± SEM
Description: as §2, §3
(§4) Data are mean ± SEM. *; P < 0.05, **; P < 0.01 ***; P < 0.001 as compared with the control.

[6] = Clinical biochemistry markers in serum, intervention trial apoE KO mice; assay type: in vivo, mouse; settings: Intervention (6 + 6 weeks), mean ± SEM
Description: as §2, §3, §4

[7] = Clinical biochemistry markers in serum, intervention trial LDLr KO mice; assay type: in vivo, mouse; settings: Intervention (8 + 8 weeks), mean ± SEM
Description: as §2, §3, §4

apoE KO mice [8] = test: Atherosclerosis therapeutic intervention trial in apoE KO mice; assay type: in vivo, mouse
Method: as §1, §2, §3

FAK = settings: cited from earlier work
[9] = means, radiolabeled ATP, DELFIA or TR-FRET method
[10] = therapeutic intervention, 0.03% food admixture

## COc1ccc(Nc2ncc(Cl)c(Nc3ccc(N4CCC(N5CCN(C)CC5)CC4)c4c3C(=O)N(C)C4)n2)c(OC)c1 [Compound 12, 7-[5-Chloro-2-(2,4-dimethoxy-phenylamino)-pyrimidin-4-ylamino]-2-methyl-4-[4-(4-methyl-piperazin-1-yl)-piperidin-1-yl]-2,3-dihydro-isoindol-1-one]
c-Src
  activity on Src: no activity
c-Src; [9]
  IC50: > 10 µM
[1]
  activity on cyclin-dependent kinase 1: no activity
[1]; [9]
  IC50: > 10 µM
LDLr KO mice; intervention 8 + 8 weeks, P < 0.01 vs control
  cholesterol content in aorta: significantly reduced
LDLr KO mice; intervention 8 + 8 weeks, normalized to Control at 8 weeks, control at 16 weeks 8.51%
  lesion area of the aorta (en face analysis): 5.83%
LDLr KO mice; therapeutic intervention
  body weight change: no remarkable changes
  food intake: no remarkable changes
  tolerability: generally well tolerated
apoE KO mice [2]; 0.03% food admixture
  body weight change: no remarkable changes
  food intake: no remarkable changes
  tolerability: generally well tolerated
apoE KO mice [2]; 8 weeks, 0.03% food admixture
  histological features of atherosclerotic plaques (HE, EvG, anti Mac-3): foam cell rich, reduced fibrous and lipid core regions
apoE KO mice [2]; 8 weeks, 0.03% food admixture with HF/HC diet
  reduction of lesion area of the aorta (en face analysis) vs control: 41.2%
apoE KO mice [2]; 8 weeks, 0.03% food admixture, P < 0.01 vs control
  cholesterol content in aorta: significantly reduced
apoE KO mice [2]; 8 weeks, 0.03% food admixture, P < 0.05 vs control
  lesion area of aortic root (cross-sectional analysis): significantly reduced
apoE KO mice [2]; 8 weeks, 0.03% food admixture, control 8.92%
  lesion area of the aorta (en face analysis, TAOL/AOWA x 100): 5.24%
[3]
  activity on insulin receptor kinase: no activity
[3]; [9]
  IC50: > 3.3 µM
[4]
  activity on insulin-like growth factor 1 receptor kinase: no activity
[4]; [9]
  IC50: > 10 µM
[5]
  ALB: 2.2 ± 0.07^* g/dL
  ALP: 554 ± 31^** U/L
  ALT: 25 ± 1.6 U/L
  AST: 115 ± 15 U/L
  BUN: 41 ± 2.5 mg/dL
  CPK: 700 ± 362 U/L
  CRE: 0.3 ± 0.02^*** mg/dL
  Glc: 167 ± 16 mg/dL
  Insulin: 751 ± 109 pg/mL
  LDH: 535 ± 47^** U/L
  T-BIL: 0.5 ± 0.03 mg/dL
  T-Chol: 1,221 ± 102^* mg/dL
  TG: 94 ± 8.4^* mg/dL
[6]
  ALB: 2.3 ± 0.04 g/dL
  ALP: 469 ± 37^*** U/L
  ALT: 26 ± 1.3 U/L
  AST: 108 ± 7.0 U/L
  BUN: 42 ± 2.5 mg/dL
  CPK: 227 ± 48 U/L
  CRE: 0.3 ± 0.02^*** mg/dL
  LDH: 590 ± 36^* U/L
  T-BIL: 0.5 ± 0.05 mg/dL
  T-Chol: 1,016 ± 53^* mg/dL
  TG: 93 ± 6.7^** mg/dL
[7]
  ALB: 2.2 ± 0.05 g/dL
  ALP: 406 ± 34^** U/L
  ALT: 24 ± 1.6^** U/L
  AST: 97 ± 8.0 U/L
  BUN: 32 ± 1.2 mg/dL
  CPK: 196 ± 76^** U/L
  CRE: 0.3 ± 0.02^*** mg/dL
  LDH: 295 ± 38 U/L
  T-BIL: 0.6 ± 0.05 mg/dL
  T-Chol: 714 ± 51^*** mg/dL
  TG: 273 ± 21 mg/dL
apoE KO mice [8]; intervention 6 + 6 weeks, 0.03% food admixture
  lesion area of aortic root (cross-sectional analysis): appeared to be reduced
apoE KO mice [8]; intervention 6 + 6 weeks, 0.03% food admixture, P < 0.05 vs control
  cholesterol content in aorta: significantly reduced
apoE KO mice [8]; intervention 6 + 6 weeks, 0.03% food admixture, normalized to Control at 6 weeks, control at 12 weeks 8.03%
  lesion area of the aorta (en face analysis): 4.75%
apoE KO mice [8]; intervention 6 + 6 weeks, 0.03% food admixture, printed in Fig. 2e
  change of lesion area (mm^2) of aortic root vs control: -15%
apoE KO mice [8]; intervention, 6 + 6 weeks, 0.03% food admixture with HF/HC diet
  reduction of lesion area of the aorta (en face analysis) vs control: 40.9%
apoE KO mice [8]; [10]
  body weight change: no remarkable changes
  food intake: no remarkable changes
  tolerability: generally well tolerated
FAK
  IC50: 0.006 µM
